Reference: patent publication US12023348B2, “EGR1 targeting molecules for the treatment of inflammatory and hyperproliferative conditions” (The Medical Research, Infrastructure and Health Services …, priority 2015, dated 2024)

Test system: imiquimod-induced psoriasiform dermatitis
Assay: Imiquimod-induced psoriasiform dermatitis in mice
Assay type: in vivo
Conditions: for Overt toxicity / Inflammatory infiltrate / Epidermal thickness / Index of proliferation (Ki67): i.p. five times a week, CaCx 22.5 mg/kg or ApDx 7.5 mg/kg; for Overt toxicity: 5 days; for Inflammatory infiltrate: biopsies after 5 days; for Epidermal thickness / Index of proliferation (Ki67): biopsies after 5 days (FIG. 5A); for EGR1 RNA levels in treated skin: quantitative PCR vs vehicle group (FIG. 5B); for EGR1 RNA levels in treated skin / IL-33 RNA levels in treated skin: CaCx 22.5 mg/kg or ApDx 7.5 mg/kg i.p.; for IL-33 RNA levels in treated skin: quantitative PCR vs vehicle group (FIG. 5C)
Description: Balb/c mice (Harlan Laboratories Ltd, Jerusalem, Israel), 9 weeks of age, were maintained in a pathogen-free animal facility. Animal care and research protocols had been approved by the institutional committee for animal use. Imiquimod 5% (Perrigo, Israel) was used as topical treatment for the mice on their upper backs. Mice were injected i.p. five times a week with DMSO or 7.5-22.5 mg/kg of ApDx and CaCx, respectively (NCI). 10% DMSO in […] was used as a vehicle control.
Formaldehyde-fixed 5-μm paraffin-embedded sections from skin biopsies were deparaffinized and treated with 3% H2O2 in methanol for 15 minutes at room temperature, warmed in a microwave oven in citrate buffer in a pressure cooker for 25 minutes, and stained with a monoclonal anti-Ki67 antibody (Thermo Scientific) for 1 hour at room temperature. Following 3 washings (10 minutes each) with phosphate-buffered saline (PBS), the antibodies were imaged using the ABC technique (Zymed Laboratories, South San Francisco, CA) and the slides were counterstained with hematoxylin.
Epidermal thickness was defined as the distance between the granular layer and the basement membrane and was measured at 10 randomly selected locations for each biopsy using NIS-Elements BR 3.2 software (Nikon, NY USA). An image was taken and was manually measured in the software by selecting an upper and lower border, as defined above. The distance was measured in microns.
RNA was extracted from cell cultures using an RNA extraction kit (Roche Diagnostics, Mahheim, Germany). cDNA was synthesized from 500 ng of total RNA using the Verso cDNA kit (Thermo Fisher Scientific, Waltham, MA, USA). cDNA PCR amplification was carried out using the Fast SYBR Green Master Mix in a StepOnePlus™ Real-Time PCR System (Applied Biosystems, Foster City, CA, USA) with gene-specific intron-crossing oligonucleotide pairs listed in Table 1 (below). For quantification, standard curves were obtained using serially diluted cDNA amplified in the same qRT-PCR run. The melting temperature (Tm) of the amplified products was measured to confirm the specificity of the reaction conditions. Cycling conditions were as follows: 95° C. for 10 minutes, 95° C. for 10 seconds, 62° C. for 15 seconds, and 72° C. for 25 seconds for a total of 40 cycles. Each sample was analyzed in triplicate. mRNA expression level for target gene was normalized to GAPDH. The results are based the amount of target, normalized to an endogenous reference (IACTB) and relative to a calibrator, as calculated by 2-ΔΔCT. All samples were run in triplicate. The expression levels of target genes were expressed as mRNA relative units.
This hypothesis was tested in a murine model in which psoriasiform dermatitis was induced using imiquimod [as previously described in Tortola, L. et al. (2012) J Clin Invest 122, 3965-76].
Balb/c mice were treated topically with imiquimod and were injected five times a week i.p. with either the vehicle, 22.5 mg/kg of CaCx or 7.5 mg/kg of ApDx.
After 5 days, biopsies were obtained from the treated skin and stained for hematoxylin and eosin as well as for Ki67 (FIGS. 4A-F), as a surrogate marker for cellular proliferation.

Compound	Overt toxicity	Inflammatory infiltrate	Epidermal thickness	Index of proliferation (Ki67)	EGR1 RNA levels in treated skin	IL-33 RNA levels in treated skin
CCCN1c2ccc(N)cc2S(=O)(=O)c2cc(Cl)cc(Cl)c21 [Compound 629971, 7,9-dichloro-5,5-dioxo-10-propylphenothiazin-3-amine]	No overt toxicity	did not affect	decrease	decrease	significant decrease	significant decrease
Cc1c2ccnc(C(N)=O)c2c(C)c2c1[nH]c1ccccc12.Cl [Compound 335142, 6H-Pyrido[4,3-b]carbazole-1-carboxamide, 5,11-dimethyl-, monohydrochloride]	No overt toxicity	did not affect	decrease	decrease	significant decrease	significant decrease
